# From US6444850B1, “Fungicidial compounds having a fluorovinyloxphyenyl moiety and process for the preparation thereof” (priority 1997, dated 2002)
# How the values were obtained:
# Puccinia recondita = assay: Fungicidal activity against wheat leaf rust (WLR) disease; type: in vivo; conditions: for C. V. (%), Fungicidal Activities against WLB at 10 ppm: Table 8 (Test Example 5); for C. V. (%) WLR: 50 ppm, control value, wheat leaf rust
# Phytophthora infestans = type: in vivo; conditions: 50 ppm; control value, tomato late blight
# Erysiphae graminis = assay: Fungicidal activity against barley powdery mildew (BPM) disease; type: in vivo; conditions: for C. V. (%), Fungicidal activities against TLB at 10 ppm: Table 9 (Test Example 6); for C. V. (%) BPM: 50 ppm, control value, barley powdery mildew
# Botrytis cinerae = assay: Fungicidal activity against cucumber gray mold rot (CGM) disease; type: in vivo; conditions: 50 ppm, control value
# Rhizoctonia solani AG-1 = assay: Fungicidal activity against rice sheath blight (RSB) disease; conditions: 50 ppm, control value
# [1] = tested on: Pyricularia oryzae Carvara KA301; type: in vivo; conditions: for C. V. (%) RCB: 50 ppm, control value, rice blast; for C. V. (%) Fungicidal Activities against RCB at 10 ppm / C. V. (%) Fungicidal Activities against RCB at 10 ppm (TABLE 6): sprayed on Nakdong rice plant, control value from lesion area
SMILES,"C. V. (%), Fungicidal Activities against WLB at 10 ppm (Puccinia recondita) [%]",C. V. (%) WLR (Puccinia recondita) [%],C. V. (%) TLB (Phytophthora infestans) [%],"C. V. (%), Fungicidal activities against TLB at 10 ppm (Erysiphae graminis) [%]",C. V. (%) BPM (Erysiphae graminis) [%],C. V. (%) CGM (Botrytis cinerae) [%],C. V. (%) RSB (Rhizoctonia solani AG-1) [%],C. V. (%) RCB [1] [%],C. V. (%) Fungicidal Activities against RCB at 10 ppm [1] [%],C. V. (%) Fungicidal Activities against RCB at 10 ppm (TABLE 6) [1] [%]
CCc1ccc(C(=C(F)Oc2cccc(OCc3ccccc3C(=COC)C(=O)OC)c2)C(F)(F)F)cc1 [Compound 58],95,100,0,99,100,25,40,90,–,–
CNC(=O)C(=COC)c1ccccc1COc1cccc(OC(F)=C(c2ccc(OC)cc2)C(F)(F)F)c1 [Compound 75],–,0,33,–,0,0,40,0,–,–
CNC(=O)C(=NOC)c1ccccc1COc1cccc(OC(F)=C(c2ccc(F)cc2)C(F)(F)F)c1 [Compound 99],100,100,48,100,100,21,90,80,95,95
CON=C(C(=O)OC)c1ccccc1COc1cccc(OC(F)=Cc2ccc(C)c(C)c2)c1 [Compound 15],–,96,25,–,100,15,90,92,–,–
COC=C(C(=O)OC)c1ccccc1COc1cccc(OC(F)=Cc2ccc(C)c(C)c2)c1 [Compound 13],95,98,85,99,100,58,50,97,97,97
COC(=O)C(=CSC)c1ccccc1COc1cccc(OC(F)=Cc2cccc(C)c2)c1 [Compound 9],–,88,26,–,95,33,92,96,–,–
CNC(=O)/C(=N/OC)c1ccccc1COc1cccc(OC(F)=C(c2cc(C)cc(C)c2)C(F)(F)F)c1 [Compound 70],100,100,0,100,100,0,0,100,100,100
COC(=O)C(=CSC)c1ccccc1COc1cccc(OC(F)=C(c2ccc(C)cc2)C(F)(F)F)c1 [Compound 57],–,96,40,–,98,9,45,53,–,–
CON=C(C(=O)OC)c1ccccc1COc1cccc(OC(F)=C(c2ccc(Cl)cc2)C(F)(F)F)c1 [Compound 90],–,100,0,97,99,25,30,90,93,93
CNC(=O)C(=NOC)c1ccccc1COc1cccc(OC(F)=C(c2ccc(Cl)cc2)C(F)(F)F)c1 [Compound 91],100,100,64,100,100,17,90,99,99,99
COC=C(C(=O)OC)c1ccccc1COc1cccc(OC(F)=Cc2ccc(C)cc2)c1 [Compound 10],96,100,50,97,95,0,92,97,95,95
CNC(=O)C(=COC)c1ccccc1COc1cccc(OC(F)=C(c2cccc(Cl)c2)C(F)(F)F)c1 [Compound 85],–,73,22,–,0,16,10,16,–,–
CCCCCCC(=C(F)Oc1cccc(OCc2ccccc2C(=COC)C(=O)NC)c1)C(F)(F)F [Compound 107],–,80,3,–,41,21,10,0,–,–
COC=C(C(=O)OC)c1ccccc1COc1cccc(OC(F)=C(c2cccc(OC)c2)C(F)(F)F)c1 [Compound 71],95,100,62,100,100,41,40,90,–,–
COC=C(C(=O)OC)c1ccccc1COc1cccc(OC(F)=Cc2cccc(F)c2)c1 [Compound 34],100,98,75,100,100,0,95,99,100,100
COC(=O)C(=CSC)c1ccccc1COc1cccc(OC(F)=Cc2ccc(Cl)cc2)c1 [Compound 40],–,83,33,–,93,9,70,73,–,–
COC=C(C(=O)OC)c1ccccc1COc1cccc(OC(F)=C(c2cccc(C)c2)C(F)(F)F)c1 [Compound 49],95,100,0,100,100,41,50,95,–,–
CCOc1ccc(C(=C(F)Oc2cccc(OCc3ccccc3C(=COC)C(=O)OC)c2)C(F)(F)F)cc1 [Compound 78],97,98,0,100,100,0,40,0,–,–
CNC(=O)C(=COC)c1ccccc1COc1cccc(OC(F)=C(c2ccc(F)cc2)C(F)(F)F)c1 [Compound 97],–,83,22,–,33,11,10,0,–,–
COC=C(C(=O)OC)c1ccccc1COc1cccc(OC(F)=Cc2cc(C)c(C)cc2C)c1 [Compound 21],90,96,44,–,98,33,90,93,–,–
"CNC(=O)/C(=C/OC)c1ccccc1COc1cccc(OC(F)=Cc2ccccc2)c1 [Compound 2, (2E)-N-methyl-3-methoxy-2-{2′-{3″-(2′″-fluorostyryl)-2′″-oxy}phenoxymethyl}phenyl-2-propenamide]",–,96,74,–,86,84,50,100,–,–
CCOc1ccc(C(=C(F)Oc2cccc(OCc3ccccc3C(=NOC)C(=O)OC)c2)C(F)(F)F)cc1 [Compound 79],96,100,18,99,100,7,55,0,–,–
CNC(=O)C(=NOC)c1ccccc1COc1cccc(OC(F)=C(c2cccc(C)c2)C(F)(F)F)c1 [Compound 52],100,100,55,100,100,28,90,95,95,95
COC=C(C(=O)OC)c1ccccc1COc1cccc(OC(F)=C(c2ccc(F)cc2)C(F)(F)F)c1 [Compound 96],97,100,62,100,100,33,67,90,95,95
